Measured values as given in publication PMC6530361, “Anti-tumor Efficacy Assessment of the Sigma Receptor Pan Modulator RC-106. A Promising Therapeutic Tool for Pancreatic Cancer” (Frontiers in Pharmacology, 2019).

Columns and labels:
[1] = system: Panc-1 spheroids; assay: Analysis of morphological parameters of 3D tumor spheroids; assay type: cell-based; details: 50 μM, 48 h
Protocol: Spheroids were obtained as previously described ([Zanoni et al., 2016]). Briefly, a rotatory cell culture system RCCS (Synthecon Inc., Houston, TX, United States) was used. The rotary systems were placed inside a humidified 37°C, 5% CO2 incubator and all procedures were performed in sterile conditions. Single cell suspensions of about 1 × 10^6 cells/ml of Panc-1 were placed in the 50 mL rotating chamber at an initial speed of 12 rpm. Speed was increased as cells formed aggregates to avoid sedimentation. The culture medium was changed every 4 days and tumor spheroids with an equivalent diameter ranging from about 500–1300 μm were obtained in around 15 days. After formation, spheroids were transferred into a 96-well low-attachment culture plates (Corning Inc., Corning, NY, United States; one spheroid/well), containing 100 μL of fresh culture medium per well.
The analysis of morphological parameters were performed as previously described ([Piccinini et al., 2017]). Briefly, an inverted Olympus IX51 microscope (Olympus Corporation, Tokyo, Japan), equipped with a Nikon Digital Sight DS-Vi1 camera (CCD vision sensor, square pixels of 4.4 μm side length, 1600 × 1200 pixel resolution, 8-bit gray level; Nikon Instruments, Spa. Florence, Italy) was used to take images and for morphological analyses. […]

[2] = system: proteasome activity of Capan-2; assay: Proteasome activity assay; assay type: cell-based; details: Capan-2, 24 h
Protocol: (§1) Cells were seeded in 6-well plates at density of 250 × 10^3 cells/well. Cells were treated with increasing concentration of RC-106 and after 24 h total protein extracts were obtained: cells were washed 2 times with PBS and lysed with 100 μL of lysis buffer (Hepes 5 mM pH 7.5, NaCl 150 mM, Glycerol 10%, Triton X100 1%, MgCl2 1.5 mM, EGTA 5 mM). Protein concentration of samples was quantified using Bradford method. Proteasome activity was quantified as described below. Proteasome solution was composed by 40 μg of proteins, 10 μL of 10X proteasome buffer (Hepes pH 7.5 250 mM, EDTA pH 8.0 5 mM, NP-40 0.5%, SDS 0.01%) and 10 μL of 10 mM proteasome substrate (N-Succinyl-Leu-Leu-Val-Tyr-7-Amido-4-Methylcoumarin, 7.6 mg/mL; Sigma-Aldrich, United States). 100 μL of proteasome solution was loaded in wells of a black 96-well plate. The plate was then incubated at 37°C for 2 h and the fluorescence was measured in a microplate reader (excitation 380 nm, emission 460 nm; BMG-Labtech, Germany).

[3] = system: proteasome activity of Capan-1; assay: Proteasome activity assay; assay type: cell-based; details: Capan-1, 24 h, highest concentration used
Protocol: as §1

[4] = system: S1R; set-up: method as in Rui et al., 2016; Rossi et al., 2017; details: ref Rui et al., 2016; Rossi et al., 2017; cited from earlier work
[5] = system: Panc-1; assay: Migration scratch wound healing assay; assay type: cell-based; details: Panc-1, 60 μM, all considered time points (24, 48, 72 h)
Protocol: (§2) Cells were seeded in a 6-well plate and were incubated at 37°C until confluence of 90–100% was reached. Culture medium was then replaced by serum free medium. After 24 h, a scratch was made on cell monolayer using a plastic tip and wells were washed 2 times with PBS to remove detached cells and debris. Culture medium, with or without RC-106, was added to each well. Micrographs of the scratches were taken at 0 h, immediately after the scratch, and at 24, 48, and 72 h. Cell migration area was quantified using IMAGEJ software.

[6] = system: Capan-1; assay: Migration scratch wound healing assay; assay type: cell-based
Protocol: as §2

[7] = system: Capan-2; assay: Migration scratch wound healing assay; assay type: cell-based; details: Capan-2, 20 and 40 μM, after 48 and 72 h
Protocol: as §2

For `C/C(=C\CN1CCC(Cc2ccccc2)CC1)c1ccc2ccccc2c1` [RC-106, (E)-4-benzyl-1-(3-(naphthalen-2-yl)but-2-en-1-yl)piperidine], which “3D morphological parameters of spheroids” value [1] is on record?
The value was “complete disaggregation of spheroid organization and cytoarchitecture”.

What about the “lowest concentration used to inhibit proteasome activity” value [2] of the same molecule?
The value was 20 µM.

And the “concentration at which greatest proteasome inhibition is observed” value [3]?
Its value is 100 µM.

What about the S1R modulatory profile [4] of the same molecule?
Its S1R modulatory profile is “S1R antagonist”.

What about the cell migration [5] of the same molecule?
Its cell migration is “significatively reduced”.

What about the cell migration ([6]; Capan-1, 20 μM, after 48 h) of the same molecule?
Its cell migration is “significantly reduced”.

What about the cell migration ([6]; Capan-1, 40 and 60 μM, after 24 h) of the same molecule?
Its cell migration is “reduced cell migration”.

What about the cell migration [7] of the same molecule?
The cell migration was “significatively reduceded”.
